Drawing on patent publication US9573930B2 (Quanticel Pharmaceuticals, Inc., priority 2014, dated 2017), this text covers IC50 for 28 compounds.

The IC50 is the midpoint of a concentration-inhibition curve. Low readings indicate greater potency in that assay, high ones weaker potency in that assay.

Structures are written as SMILES. Some results are limits rather than exact numbers.

This experiment has as its target full-length human LSD1 (Homo sapiens (Human), UniProt O60341). The experiment can be described thus: In vitro enzyme inhibition assay LSD-1 (TR-FRET). Format: biochemical. Particulars: H3K4me1-biotin peptide. How it is done:
This assay determines the ability of a test compound to inhibit LSD1 demethylase activity.
The enzymatic assay of LSD1 activity is based on Time Resolved-Fluorescence Resonance Energy Transfer (TR-FRET) detection.
The ability of the compounds disclosed herein to inhibit LSD1 activity was quantified and the respective IC50 value was determined.
A general note: In TR-FRET formats the signal depends on donor and acceptor labels being close together.
`COc1ccc(-c2c(-c3cccc(C#N)c3)nc(N3CCC(N)CC3)n(C)c2=O)cc1F` [Example 118, 3-[2-(4-aminopiperidin-1-yl)-5-(3-fluoro-4-methoxyphenyl)-1-methyl-6-oxopyrimidin-4-yl]benzonitrile]: the IC50 is > 10000 nM.
Take `COc1ccc(-c2c(-c3ccc(C#N)c(F)c3)nc(N3CC(N)C3)n(C)c2=O)cc1` [Example 64, 4-[2-(3-amino-azetidin-1-yl)-5-(4-methoxy-phenyl)-1-methyl-6-oxo-1,6-dihydro-pyrimidin-4-yl]-2-fluoro-benzonitrile]: the IC50 is < 100 nM.
The value for `COc1ccc(-c2c(-c3ccc(C#N)c(F)c3)nc(N3CC[C@H](N)C3)n(C)c2=O)cc1F` [Example 29, 4-[2-((3S)-3-amino-pyrrolidin-1-yl)-5-(3-fluoro-4-methoxy-phenyl)-1-methyl-6-oxo-1,6-dihydro-pyrimidin-4-yl]-2-fluoro-benzonitrile] was < 100 nM; that for `COc1c(F)cc(-c2c(-c3ccc(C#N)cc3)nc(N3CCC(N)CC3)n(C)c2=O)cc1F` [Example 38, 4-[2-(4-aminopiperidyl)-5-(3,5-difluoro-4-methoxyphenyl)-1-methyl-6-oxohydropyrimidin-4-yl]benzenecarbonitrile] was < 100 nM; that for `N#Cc1ccc(-c2cc(=O)n(CCCO)c(N3CCC(N)CC3)n2)cc1F` [Example 17, 4-[2-(4-amino-piperidin-1-yl)-1-(3-hydroxy-propyl)-6-oxo-1,6-dihydro-pyrimidin-4-yl]-2-fluoro-benzonitrile] was 100 to 1000 nM.
The value for `Cn1c(N2CCC(N)CC2)nc(-c2ccc(C#N)c(F)c2)c(-c2ccc(CO)cc2)c1=O` [Example 100, 4-[2-(4-aminopiperidin-1-yl)-5-[4-(hydroxymethyl)phenyl]-1-methyl-6-oxopyrimidin-4-yl]-2-fluorobenzonitrile] was < 100 nM; that for `Cn1c(N2CCC(N)CC2)nc(-c2ccc(C#N)c(F)c2)c(-c2ccc3ccn(C)c3c2)c1=O` [Example 76, 4-[2-(4-amino-piperidin-1-yl)-1-methyl-5-(1-methyl-1H-indol-6-yl)-6-oxo-1,6-dihydro-pyrimidin-4-yl]-2-fluoro-benzonitrile] was < 100 nM.
`COc1ccc(-c2c(-c3ccc(C#N)c(F)c3)nc(N3CCC4(CCNC4)CC3)n(C)c2=O)cc1F` [Example 22, 4-[2-(2,8-diaza-spiro[4.5]dec-8-yl)-5-(3-fluoro-4-methoxy-phenyl)-1-methyl-6-oxo-1,6-dihydro-pyrimidin-4-yl]-2-fluoro-benzonitrile]: the IC50 was < 100 nM.
The value for `COc1ccc(-c2c(-c3ccc(C#N)cc3)nc(N3CCC(N)CC3)n(C)c2=O)cn1` [Example 3, 4-[2-(4-amino-piperidin-1-yl)-5-(6-methoxy-pyridin-3-yl)-1-methyl-6-oxo-1,6-dihydro-pyrimidin-4-yl]-benzonitrile] was < 100 nM; that for `CN(C)c1ccc(-c2c(-c3ccc(C#N)c(F)c3)nc(N3CCC(N)CC3)n(C)c2=O)cc1` [Example 59, 4-[2-(4-amino-piperidin-1-yl)-5-(4-dimethylamino-phenyl)-1-methyl-6-oxo-1,6-dihydro-pyrimidin-4-yl]-2-fluoro-benzonitrile] was < 100 nM.
`COc1ccc(-c2c(-c3ccccc3C#N)nc(N3CCC(N)CC3)n(C)c2=O)cc1F` [Example 119, 2-[2-(4-aminopiperidin-1-yl)-5-(3-fluoro-4-methoxyphenyl)-1-methyl-6-oxopyrimidin-4-yl]benzonitrile]: the half-inhibitory concentration (IC50) was > 10000 nM.
Then `Cn1c(N2CCC(N)CC2)nc(-c2ccc(C#N)c(F)c2)c(-c2ccc(N3CCOCC3)nc2)c1=O` [Example 68, 4-[2-(4-amino-piperidin-1-yl)-1-methyl-5-(6-morpholin-4-yl-pyridin-3-yl)-6-oxo-1,6-dihydro-pyrimidin-4-yl]-2-fluoro-benzonitrile], with < 100 nM; and `COc1ccc(-c2c(-c3ccc(C#N)c(F)c3)nc(N3CCC[C@H](N)C3)n(C)c2=O)cc1F` [Example 28, 4-[2-((3S)-3-amino-piperidin-1-yl)-5-(3-fluoro-4-methoxy-phenyl)-1-methyl-6-oxo-1,6-dihydro-pyrimidin-4-yl]-2-fluoro-benzonitrile], with < 100 nM.
Then `Cc1ccc(-c2c(-c3ccc(C#N)c(F)c3)nc(N3CCC(N)CC3)n(C)c2=O)cn1` [Example 9], with < 100 nM; and `Cn1c(N2CCC(N)CC2)nc(-c2ccc(C#N)c(F)c2)c(C#CC2CCCC2)c1=O` [Example 14, 4-[2-(4-amino-piperidin-1-yl)-5-cyclopentylethynyl-1-methyl-6-oxo-1,6-dihydro-pyrimidin-4-yl]-2-fluoro-benzonitrile], with < 100 nM; and `Cn1c(N2CCC(N)CC2)nc(-c2ccc(C#N)c(F)c2)c(-c2ccc(CCO)cc2)c1=O` [Example 99, 4-[2-(4-aminopiperidin-1-yl)-5-[4-(2-hydroxyethyl)phenyl]-1-methyl-6-oxopyrimidin-4-yl]-2-fluorobenzonitrile], with < 100 nM.
The value for `CNC1CCN(c2nc(-c3ccc(C#N)c(F)c3)c(-c3ccc(OC)nc3)c(=O)n2C)CC1` [Example 58, 2-fluoro-4-[5-(6-methoxy-pyridin-3-yl)-1-methyl-2-(4-methylamino-piperidin-1-yl)-6-oxo-1,6-dihydro-pyrimidin-4-yl]-benzonitrile] was < 100 nM; that for `CN(C)c1ccc(-c2c(-c3ccc(C#N)c(F)c3)nc(N3CCCNCC3)n(C)c2=O)cn1` [Example 63, 4-[2-[1,4]diazepan-1-yl-5-(6-dimethylamino-pyridin-3-yl)-1-methyl-6-oxo-1,6-dihydro-pyrimidin-4-yl]-2-fluoro-benzonitrile] was < 100 nM; that for `C#Cc1c(-c2ccc(C#N)c(F)c2)nc(N2CCC(N)CC2)n(C)c1=O` [Example 110] was < 100 nM.
As for `CN(C)c1ccc(-c2c(-c3ccc(C#N)cc3)nc(N3CCCNCC3)n(C)c2=O)cn1` [Example 67, 4-[2-[1,4]diazepan-1-yl-5-(6-dimethylamino-pyridin-3-yl)-1-methyl-6-oxo-1,6-dihydro-pyrimidin-4-yl]-benzonitrile], the IC50 is < 100 nM.
Take `COc1ccc(-c2c(-c3ccc(C#N)c(F)c3)nc(N3CCC(N)CC3)n(C)c2=O)cc1` [Example 6, 4-[2-(4-amino-piperidin-1-yl)-5-(4-methoxy-phenyl)-1-methyl-6-oxo-1,6-dihydro-pyrimidin-4-yl]-2-fluoro-benzonitrile]: the IC50 is < 100 nM.
`CNC1CCN(c2nc(-c3ccc(C#N)c(F)c3)c(-c3ccc(N(C)C)nc3)c(=O)n2C)CC1` [Example 83, 4-[5-(6-dimethylamino-pyridin-3-yl)-1-methyl-2-(4-methylamino-piperidin-1-yl)-6-oxo-1,6-dihydro-pyrimidin-4-yl]-2-fluoro-benzonitrile]: the IC50 was < 100 nM.
Then `COc1ccc(-c2c(-c3ccc(C#N)cc3)nc(NC[C@@H]3CCNC3)n(C)c2=O)cc1F` [Example 45, 4-{5-(3-fluoro-4-methoxy-phenyl)-1-methyl-6-oxo-2-[(3R)-(pyrrolidin-3-ylmethyl)-amino]-1,6-dihydro-pyrimidin-4-yl}-benzonitrile], with < 100 nM; and `Cn1c(N2CCC(N)CC2)nc(-c2ccc(C#N)c(F)c2)c(-c2ccc3c(c2)CNC3=O)c1=O` [Example 42, 4-[2-(4-amino-piperidin-1-yl)-1-methyl-6-oxo-5-(1-oxo-2,3-dihydro-1H-isoindol-5-yl)-1,6-dihydro-pyrimidin-4-yl]-2-fluoro-benzonitrile], with < 100 nM.
Then `COc1ccc(-c2c(-c3ccc(C#N)c(F)c3)nc(N3CCC[C@@H](N)C3)n(C)c2=O)cc1F` [Example 25, 4-[2-((3R)-3-aminopiperidyl)-5-(3-fluoro-4-methoxyphenyl)-1-methyl-6-oxohydropyrimidin-4-yl]-2-fluorobenzenecarbonitrile], with < 100 nM; and `Cn1c(N2CCC(N)CC2)nc(-c2ccc(C#N)c(F)c2)c(-c2ccc(C(=O)O)cc2)c1=O` [Example 39, 4-[2-(4-aminopiperidyl)-6-(4-cyano-3-fluorophenyl)-3-methyl-4-oxo-3-hydropyrimidin-5-yl]benzoic acid], with 100 to 1000 nM.
The value for `COCCOc1ccc(-c2c(-c3ccc(C#N)c(F)c3)nc(N3CCC(N)CC3)n(C)c2=O)cc1` [Example 98, 4-[2-(4-aminopiperidin-1-yl)-5-[4-(2-methoxyethoxy)phenyl]-1-methyl-6-oxopyrimidin-4-yl]-2-fluorobenzonitrile] was < 100 nM; that for `CCn1c(N2CCC(N)CC2)nc(-c2ccc(C#N)c(F)c2)cc1=O` [Example 13, 4-[2-(4-amino-piperidin-1-yl)-1-ethyl-6-oxo-1,6-dihydro-pyrimidin-4-yl]-2-fluoro-benzonitrile] was 100 to 1000 nM.
